These results are taken from publication PMC5983544, “Muscarinic M5 receptors modulate ethanol seeking in rats” (Neuropsychopharmacology, 2018).

Data set [1] deals with T1, rat M1 mAChR (Rattus norvegicus, UniProt P08482).
T1 construct: host or cells: FlpIn CHO cells (Invitrogen)
T1 sequence (P08482 1-460): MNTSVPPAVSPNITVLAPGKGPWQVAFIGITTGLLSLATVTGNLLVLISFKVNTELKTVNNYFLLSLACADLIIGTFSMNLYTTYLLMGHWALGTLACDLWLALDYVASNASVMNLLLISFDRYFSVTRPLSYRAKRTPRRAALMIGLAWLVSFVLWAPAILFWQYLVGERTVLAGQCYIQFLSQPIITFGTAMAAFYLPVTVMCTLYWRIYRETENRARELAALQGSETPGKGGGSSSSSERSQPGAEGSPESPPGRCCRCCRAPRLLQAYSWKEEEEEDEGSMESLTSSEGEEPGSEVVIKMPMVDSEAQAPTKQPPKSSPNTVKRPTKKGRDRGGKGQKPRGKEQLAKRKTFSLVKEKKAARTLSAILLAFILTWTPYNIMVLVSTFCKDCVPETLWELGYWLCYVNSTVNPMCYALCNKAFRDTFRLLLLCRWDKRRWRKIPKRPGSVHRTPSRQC
Put plainly: [3H]NMS equilibrium binding in whole CHO-rM1 cells. The conditions noted are these: rM1, [3H]NMS binding. The procedure: Rat mAChR subtypes (rM1–rM5; Origene) and human cannabinoid 1 receptor (hCB1; ref. [24]) constructs were isogenically integrated into FlpIn CHO cells (Invitrogen) and cells were selected in the presence of […] hygromycin B at 37 °C, 5% CO2, as previously described for the human M1 mAChR [25]. All cells were sub-cultured and seeded as previously described for the CHO-hM5 cells.
(§1) [^3H]NMS equilibrium binding assays in CHO-rM1 to CHO-rM5 cells were performed as previously described for CHO-hM5 cells. For [^35S]GTPγS binding, CHO-rM2 and CHO-rM4 cell membranes were prepared as described in Supplementary information. Membrane [^35S]GTPγS binding was performed as described in ref [26]., except GDP and [^35S]GTPγS concentrations were 1 μM and 0.3 nM, respectively. [^3H](+)-pentazocine binding was performed as described in ref. [27].

Data set [2] deals with T2, rat M3 mAChR (Rattus norvegicus, UniProt P08483).
T2 construct: host or cells: FlpIn CHO cells (Invitrogen)
T2 sequence (P08483 whole entry): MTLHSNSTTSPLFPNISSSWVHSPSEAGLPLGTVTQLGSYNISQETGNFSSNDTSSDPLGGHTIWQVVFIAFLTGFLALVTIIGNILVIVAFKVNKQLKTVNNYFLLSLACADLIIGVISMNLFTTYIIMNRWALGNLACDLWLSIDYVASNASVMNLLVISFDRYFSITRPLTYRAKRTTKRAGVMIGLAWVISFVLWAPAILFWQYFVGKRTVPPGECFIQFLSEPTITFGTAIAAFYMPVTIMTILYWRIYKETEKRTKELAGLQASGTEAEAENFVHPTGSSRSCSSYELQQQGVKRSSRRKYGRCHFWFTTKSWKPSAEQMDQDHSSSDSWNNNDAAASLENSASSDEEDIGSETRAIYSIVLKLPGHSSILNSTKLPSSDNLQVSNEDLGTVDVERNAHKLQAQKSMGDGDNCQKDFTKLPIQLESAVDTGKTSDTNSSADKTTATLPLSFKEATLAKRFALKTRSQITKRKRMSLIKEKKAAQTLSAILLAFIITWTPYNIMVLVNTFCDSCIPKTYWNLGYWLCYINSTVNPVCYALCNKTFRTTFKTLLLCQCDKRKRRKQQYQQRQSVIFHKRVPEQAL
Put plainly: ACh-stimulated IP accumulation (IP-One) in CHO-rM3 cells. The class given is cell-based. The conditions noted are these: Fig. 2c. The procedure:
The IP-One assay kit (Cisbio) was used for the direct quantitative measurement of inositol phosphate (IP) accumulation in CHO-rM1, CHO-rM3 or CHO-rM5 cells, as described previously. The CHO-hCB1 pERK1/2 assays were performed as described in ref [24].

In data set [3] the target is T3, rat M2 mAChR (Rattus norvegicus, UniProt P10980).
T3 construct: host or cells: FlpIn CHO cells (Invitrogen)
T3 sequence (P10980 1-466): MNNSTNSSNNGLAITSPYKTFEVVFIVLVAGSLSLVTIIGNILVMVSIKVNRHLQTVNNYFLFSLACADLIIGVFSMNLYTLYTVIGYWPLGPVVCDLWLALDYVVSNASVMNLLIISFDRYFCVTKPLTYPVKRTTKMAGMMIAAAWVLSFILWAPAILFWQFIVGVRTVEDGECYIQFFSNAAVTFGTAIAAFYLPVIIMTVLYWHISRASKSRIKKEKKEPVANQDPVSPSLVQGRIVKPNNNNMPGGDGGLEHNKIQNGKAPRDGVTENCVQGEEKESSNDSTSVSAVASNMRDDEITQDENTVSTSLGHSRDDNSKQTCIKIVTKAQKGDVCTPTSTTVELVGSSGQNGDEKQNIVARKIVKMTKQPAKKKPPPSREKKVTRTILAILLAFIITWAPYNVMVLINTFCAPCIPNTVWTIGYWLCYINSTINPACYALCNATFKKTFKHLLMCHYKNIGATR
The data set is described as follows: ACh-stimulated [35S]GTPγS binding in CHO-rM2 cell membranes. The conditions noted are these: rM2, [35S]GTPγS binding. It counts as biochemical. The procedure:
as §1

Data set [4] concerns ethanol-preferring (iP) rats. The data set is described as follows: Locomotor activity. The class given is in vivo, rat. The following applies: 60 min. The procedure: Rats (n = 6) were habituated to the locomotor room for at least 3 h.
Data set [5] relates to ethanol-preferring (iP) rats. The data set is described as follows: Ethanol self-administration after bilateral microinjection into dorsomedial (DM) striatum. The following applies: intra-DM striatum, 105 pmol/hemisphere. It counts as in vivo, rat. The text has this: Male iP rats (n = 14) were trained to self-administer 10% (v/v) ethanol via lever presses under FR3 operant conditions for approximately 12 weeks, in the presence of a 1-s light conditioned stimulus (CS+) occurring when the ethanol solution was delivered and an olfactory cue (S+ cue; one drop of vanilla essence, placed directly below the ethanol-paired (active) lever), as previously described, followed by surgery and testing. […] Rats were then given 7 days of ethanol self-administration before receiving the alternate treatment in a counterbalanced manner. For full details refer to Supplementary material.
Microinjections were performed as previously described; for full details see Supplementary material.
There was a main effect of lever (F(1, 15) = 59.4, P < 0.0001) but no effect of treatment (F(1, 15) = 0.22, P = 0.65) (Fig. 5b).

Data set [6] concerns the target hM5 mAChR. The conditions noted are these: same assay; cited from earlier work.

In the case of `O=C(c1ccc(F)c(F)c1)N1CCN2C(=O)c3ccccc3[C@@]12c1ccc(Cl)cc1` [ML375, (S)-9b-(4-chlorophenyl)-1-(3,4-difluorobenzoyl)-2,3-dihydro-1H-imidazo[2,1-a]isoi ndol-5(9bH)-one], the “effect on ACh affinity” value in data set [1] is reported as “no significant effects”. The “activity on ACh function at rM3” value in data set [2] is “weak activity”. Besides, in data set [3], the “effect on ACh potency” value is “no significant effects”. Also, the “locomotor activity vs vehicle” value in data set [4] (30 mg/kg p.o., P = 0.53) was “no difference”. Further, in data set [4] (56.6 mg/kg p.o., P = 0.016), the “locomotor activity vs vehicle” value was “did reduce locomotor activity”. Besides, the “ethanol responding vs vehicle” value in data set [5] is on record as “did not affect ethanol responding”. Further, in data set [6], the “binding affinity pKB” value was 6.87 and the “cooperativity with ACh binding, Log α” value is −1.37.
